Our source for the TGI and GI50 values is PubChem BioAssay (NCI).

Test in all cases: NCI tumour cell line growth inhibition, 48 h
The subject of test [1] is DLD-1 colon.
Test [2] deals with DMS 273 small cell lung.
Test [3] deals with DU-145 prostate.
The subject of test [4] is HOP-18 NSCLC.
The test system of test [5] is KM20L2 colon.
In test [6] the test system is M19-MEL melanoma.
The test system of test [7] is MDA-MB-231 breast.
The subject of test [8] is MDA-MB-435.
Test [9] relates to PC-3 prostate.
Test [10] relates to XF 498 CNS.

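1) Cells in 96-well plates. 2) Compound, 48 h, 5 concentrations. 3) Linear interpolation between surrounding doses. 4) Unreached endpoint = highest concentration. Here, GI50 denotes the concentration required for 50% inhibition of growth. TGI is the concentration that stops growth completely.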

Regarding `CC(=O)NC(CCCCN(Cc1ccccc1)C(=O)N(CCCl)N=O)C(=O)NCc1ccccc1` (stereo not given), the TGI in [1] was more than 79000 nM; in test [2], more than 100000 nM; in test [3], more than 51900 nM; in test [4], 87500 nM; in test [5], more than 69500 nM; in [6], more than 100000 nM. The TGI in [7] was 47900 nM; in test [8], more than 100000 nM; in test [9], more than 100000 nM; in [10] it was more than 49800 nM.
Consider `NC(=Nc1nc(-c2ccccn2)cc2ccccc12)c1ccccn1`, for which the TGI is 378 nM in test [1]; 27100 nM in test [4]; more than 100000 nM in test [5]; 953 nM in test [6]; more than 100000 nM in test [7]; more than 100000 nM in [8]. The TGI was more than 100000 nM in test [9] and 64.4 nM in [10]. Besides, the GI50 was 23.1 nM in test [2]; 135 nM in [3]; 258 nM in [4]; 199 nM in test [6]; 941 nM in [7]; 283 nM in test [8]. For the same compound, in test [9], the GI50 is 54.5 nM.
